Experimental data published in the supplement of paper PMC6045584.
± gives the standard deviation of the averaged measurements.

Assays:
[1] = compound: C[C@@H]1CN(CC(=O)Nc2ccc3c(c2)Cc2cccc(-c4cc(=O)cc(N5CCOCC5)o4)c2S3)C[C@H](C)O1; assay: surviving fraction relative to DMSO-only wells; higher = less growth inhibition; settings: exposure time: 5 days
How it was run: (§1)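 Viability values are CellTiter-Glo luminescence readings, given as surviving fraction against the median of DMSO-only wells. The readings were taken after 10 minutes at room temperature, following five days of continuous exposure to inhibitors at 0.5, 1, 5, 10, 50, 100, 500 and 1000 nM that began 24 hours after log-phase tumour cell lines were seeded at 250–500 cells per well in 384-well plates. Every line was screened three times and kept only if replicate Pearson r >0.7 and median Z' >0.3.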

[2] = compound: Cn1ncnc1[C@H]1c2n[nH]c(=O)c3cc(F)cc(c23)N[C@@H]1c1ccc(F)cc1 [BMN-673]; assay: as above; settings: exposure time: 5 days
How it was run: as §1

Row | Test System | surviving fraction ([1]; 0.5 nM) | surviving fraction ([1]; 1 nM) | surviving fraction ([1]; 5 nM) | surviving fraction ([1]; 10 nM) | surviving fraction ([1]; 50 nM) | surviving fraction ([1]; 100 nM) | surviving fraction ([1]; 500 nM) | surviving fraction ([1]; 1000 nM) | surviving fraction ([2]; 0.5 nM) | surviving fraction ([2]; 1 nM) | surviving fraction ([2]; 5 nM) | surviving fraction ([2]; 10 nM) | surviving fraction ([2]; 50 nM) | surviving fraction ([2]; 100 nM) | surviving fraction ([2]; 500 nM) | surviving fraction ([2]; 1000 nM)
1 | SCC47 HEADNECK | 1.06 ± 0.1 | 1.04 ± 0.036 | 1.1 ± 0.057 | 1.06 ± 0.075 | 1.04 ± 0.042 | 1.09 ± 0.04 | 1.05 ± 0.064 | 1.12 ± 0.093 | 1.1 ± 0.089 | 1.13 ± 0.13 | 1.13 ± 0.015 | 1.12 ± 0.058 | 1.12 ± 0.039 | 1.03 ± 0.062 | 0.937 ± 0.1 | 0.784 ± 0.1
2 | LM7 BONE | 0.909 ± 0.046 | 0.946 ± 0.031 | 0.94 ± 0.048 | 1.09 ± 0.064 | 0.947 ± 0.052 | 0.896 ± 0.033 | 0.798 ± 0.063 | 0.78 ± 0.097 | 0.975 ± 0.042 | 0.987 ± 0.068 | 0.764 ± 0.051 | 0.573 ± 0.028 | 0.395 ± 0.027 | 0.312 ± 0.028 | 0.227 ± 0.015 | 0.197 ± 0.024
3 | BT549 BREAST | 1.1 ± 0.25 | 0.918 ± 0.16 | 0.996 ± 0.083 | 1.08 ± 0.11 | 0.738 ± 0.14 | 0.741 ± 0.14 | 0.774 ± 0.14 | 0.658 ± 0.27 | 1.07 ± 0.05 | 1.03 ± 0.019 | 1.03 ± 0.11 | 0.797 ± 0.044 | 0.755 ± 0.051 | 0.652 ± 0.079 | 0.438 ± 0.04 | 0.323 ± 0.019
4 | CME SYNOVIAL | 1.35 ± 0.097 | 1.44 ± 0.15 | 1.25 ± 0.042 | 1.28 ± 0.13 | 1.11 ± 0.085 | 1.02 ± 0.054 | 0.689 ± 0.11 | 0.388 ± 0.014 | 0.831 ± 0.068 | 0.528 ± 0.039 | 0.234 ± 0.018 | 0.211 ± 0.035 | 0.243 ± 0.024 | 0.211 ± 0.012 | 0.201 ± 0.0059 | 0.285 ± 0.0076
5 | 93VU HEADNECK | 0.955 ± 0.062 | 1.09 ± 0.041 | 1.07 ± 0.069 | 1.05 ± 0.029 | 0.968 ± 0.024 | 0.943 ± 0.067 | 0.893 ± 0.045 | 0.836 ± 0.035 | 1.07 ± 0.071 | 1.14 ± 0.11 | 1.07 ± 0.14 | 0.983 ± 0.056 | 0.98 ± 0.084 | 0.925 ± 0.018 | 0.806 ± 0.087 | 0.632 ± 0.053
6 | NY BONE | 1.04 ± 0.014 | 1.06 ± 0.021 | 1.05 ± 0.024 | 1.07 ± 0.011 | 1.09 ± 0.043 | 1.12 ± 0.029 | 0.9613 ± 0.0029 | 0.915 ± 0.014 | 1.019 ± 0.0087 | 1.01 ± 0.025 | 1.01 ± 0.037 | 0.934 ± 0.056 | 0.928 ± 0.047 | 0.879 ± 0.033 | 0.501 ± 0.011 | 0.257 ± 0.014
7 | SUM149 BREAST | 0.874 ± 0.049 | 0.885 ± 0.1 | 0.96 ± 0.089 | 0.862 ± 0.035 | 1.01 ± 0.017 | 0.917 ± 0.029 | 0.819 ± 0.11 | 0.667 ± 0.024 | 0.857 ± 0.051 | 0.721 ± 0.068 | 0.301 ± 0.019 | 0.226 ± 0.023 | 0.176 ± 0.017 | 0.163 ± 0.014 | 0.149 ± 0.0045 | 0.145 ± 0.024
8 | SCC90 HEADNECK | 1.01 ± 0.16 | 1.03 ± 0.11 | 1.07 ± 0.027 | 1.12 ± 0.033 | 1.02 ± 0.042 | 0.952 ± 0.077 | 0.963 ± 0.03 | 0.971 ± 0.12 | 1.05 ± 0.046 | 1.02 ± 0.031 | 1.01 ± 0.067 | 1.02 ± 0.059 | 0.813 ± 0.04 | 0.8 ± 0.13 | 1.17 ± 0.15 | 1.15 ± 0.033
9 | S68 BREAST | 1.03 ± 0.2 | 1.16 ± 0.29 | 1.09 ± 0.28 | 1.24 ± 0.22 | 0.826 ± 0.13 | 0.79 ± 0.18 | 0.589 ± 0.086 | 0.516 ± 0.076 | 1.17 ± 0.16 | 0.724 ± 0.12 | 0.602 ± 0.18 | 0.533 ± 0.095 | 0.445 ± 0.17 | 0.378 ± 0.059 | 0.357 ± 0.032 | 0.271 ± 0.054
10 | SJSA1 BONE | 0.993 ± 0.05 | 1.04 ± 0.03 | 1.05 ± 0.029 | 1.06 ± 0.061 | 1 ± 0.017 | 1.05 ± 0.026 | 0.9383 ± 0.0074 | 0.892 ± 0.034 | 1.67 ± 0.078 | 1.72 ± 0.018 | 1.72 ± 0.12 | 1.86 ± 0.1 | 0.969 ± 0.054 | 1.27 ± 0.022 | 1.46 ± 0.06 | 1.12 ± 0.031
11 | MCF7 BREAST | 0.946 ± 0.053 | 0.874 ± 0.035 | 0.902 ± 0.033 | 0.888 ± 0.012 | 0.99 ± 0.058 | 0.955 ± 0.03 | 0.933 ± 0.019 | 1 ± 0.06 | 0.952 ± 0.053 | 0.95 ± 0.069 | 0.838 ± 0.029 | 0.802 ± 0.046 | 0.756 ± 0.03 | 0.732 ± 0.026 | 0.679 ± 0.024 | 0.62 ± 0.011
12 | SUM44 BREAST | 0.936 ± 0.036 | 0.936 ± 0.034 | 0.977 ± 0.028 | 0.968 ± 0.023 | 0.911 ± 0.044 | 0.915 ± 0.067 | 0.898 ± 0.083 | 0.892 ± 0.031 | 1.16 ± 0.29 | 1.02 ± 0.16 | 0.976 ± 0.12 | 0.798 ± 0.029 | 1.03 ± 0.21 | 0.98 ± 0.15 | 1.09 ± 0.2 | 0.988 ± 0.11
13 | SIHA CERVIX | 1.04 ± 0.022 | 1.1 ± 0.082 | 1.09 ± 0.0035 | 1.06 ± 0.023 | 1.04 ± 0.062 | 1.08 ± 0.084 | 1.02 ± 0.11 | 0.931 ± 0.051 | 1.01 ± 0.055 | 1.03 ± 0.053 | 1.15 ± 0.062 | 1.05 ± 0.013 | 0.929 ± 0.038 | 0.784 ± 0.13 | 0.602 ± 0.035 | 0.454 ± 0.041
14 | KPD BONE | 0.979 ± 0.039 | 0.946 ± 0.05 | 1.02 ± 0.047 | 1.01 ± 0.068 | 1 ± 0.092 | 1.01 ± 0.049 | 0.865 ± 0.02 | 0.7 ± 0.034 | 0.971 ± 0.046 | 0.877 ± 0.053 | 0.814 ± 0.045 | 0.463 ± 0.28 | 0.531 ± 0.03 | 0.437 ± 0.02 | 0.338 ± 0.01 | 0.3337 ± 0.0032
15 | HUO3N1 BONE | 1.01 ± 0.026 | 1 ± 0.031 | 1.05 ± 0.041 | 1.04 ± 0.041 | 1.04 ± 0.023 | 1.03 ± 0.025 | 0.979 ± 0.027 | 0.907 ± 0.026 | 0.991 ± 0.023 | 0.998 ± 0.043 | 0.945 ± 0.038 | 0.9 ± 0.014 | 0.8017 ± 0.0063 | 0.658 ± 0.015 | 0.448 ± 0.03 | 0.357 ± 0.021
16 | YAMATO SYNOVIAL | 1.41 ± 0.1 | 1.44 ± 0.13 | 1.38 ± 0.1 | 1.46 ± 0.03 | 0.925 ± 0.031 | 0.965 ± 0.046 | 0.884 ± 0.14 | 0.855 ± 0.045 | 1.08 ± 0.09 | 1.05 ± 0.035 | 1.05 ± 0.07 | 0.852 ± 0.039 | 0.788 ± 0.014 | 0.675 ± 0.035 | 0.503 ± 0.029 | 0.452 ± 0.013
17 | ASKA SYNOVIAL | 1.17 ± 0.013 | 1.21 ± 0.12 | 1.26 ± 0.11 | 1.21 ± 0.093 | 1.17 ± 0.059 | 1.15 ± 0.1 | 1.13 ± 0.1 | 0.978 ± 0.14 | 0.846 ± 0.056 | 0.753 ± 0.041 | 0.625 ± 0.043 | 0.602 ± 0.024 | 0.54 ± 0.062 | 0.427 ± 0.036 | 0.342 ± 0.015 | 0.334 ± 0.016
18 | MDAMB436 BREAST | 0.892 ± 0.043 | 0.962 ± 0.095 | 0.922 ± 0.027 | 0.928 ± 0.058 | 0.858 ± 0.067 | 0.805 ± 0.068 | 0.761 ± 0.029 | 0.611 ± 0.066 | 0.734 ± 0.039 | 0.66 ± 0.056 | 0.481 ± 0.023 | 0.434 ± 0.031 | 0.413 ± 0.032 | 0.369 ± 0.026 | 0.349 ± 0.032 | 0.332 ± 0.02
19 | A549 LUNG | 1.05 ± 0.049 | 1.05 ± 0.025 | 1.08 ± 0.02 | 1.08 ± 0.021 | 1.07 ± 0.012 | 1.098 ± 0.0099 | 1.1 ± 0.016 | 1.13 ± 0.032 | 1.08 ± 0.026 | 1.1 ± 0.014 | 1.08 ± 0.033 | 1.07 ± 0.028 | 1.13 ± 0.08 | 1.1 ± 0.025 | 1.05 ± 0.043 | 0.972 ± 0.048
20 | PCI30 HEADNECK | 0.947 ± 0.047 | 0.947 ± 0.054 | 0.969 ± 0.078 | 1.04 ± 0.052 | 1.04 ± 0.064 | 1.03 ± 0.1 | 1 ± 0.034 | 0.867 ± 0.044 | 1.01 ± 0.071 | 1.04 ± 0.092 | 0.91 ± 0.063 | 0.737 ± 0.056 | 0.585 ± 0.025 | 0.495 ± 0.0052 | 1.04 ± 0.025 | 1.08 ± 0.069
